Experimental data published in US20200109126A1 (priority 2017, published 2020).
Read-outs that look alike come from different tables or passages of the source.

Experiments:
μOR [1] = target: T1, μOR (Homo sapiens, UniProt P35372); experiment: cell-based; assay type: cell-based
μOR [2] = target: T1, μOR; experiment: β-arrestin recruitment at μOR with GRK2 co-expression; assay type: cell-based
μOR [3] = target: T1, μOR; experiment: β-arrestin recruitment at μOR without GRK2; assay type: cell-based
hKOR = hKOR (Homo sapiens, UniProt P41145); experiment: Receptor binding with [3H]diprenorphine at hKOR; conditions: ± SD (two experiments) or SEM; (n) experiments; read-out: hKOR [3H]dyprenorphine Ki
hMOR = hMOR (Homo sapiens, UniProt P35372); experiment: Receptor binding with [3H]diprenorphine at hMOR; conditions: ± SD (two experiments) or SEM; (n) experiments; read-out: hMOR [3H]dyprenorphine Ki
humanDOR = humanDOR (Homo sapiens, UniProt P41143); experiment: Receptor binding with [3H]diprenorphine at human DOR; conditions: ± SD (two experiments) or SEM; (n) experiments; read-out: humanDOR [3H]dyprenorphine Ki
μOR [4] = target: T1, μOR; experiment: biochemical; assay type: binding; parameters: expressed in transfected cells; host or cells: HEK293 membranes (Ki); Sf9 insect cell membranes (single-point screen); PDSP for analogs
Protocol: For a primary screen of selected molecules, binding to OR was assessed by measuring competition against the radioligand ^3H-diprenorphine (^3H-DPN). […] The reaction contained 40 fmol of μOR and was incubated in a buffer of 20 mM HEPES pH 7.5, 100 mM sodium chloride, and 0.1% bovine serum albumin for 1 hour at 25° C. To separate free from bound radioligand, reactions were rapidly filtered over Whatman GF/B filters with the aid of a Brandel harvester and ^3H-DPN counts were measured by liquid scintillation.

[5] = read-out: Arrestin pEC50 (converted)
[6] = molecules identified in the initial screen, read-out: μOR Ki

T1 sequence (P35372 whole entry): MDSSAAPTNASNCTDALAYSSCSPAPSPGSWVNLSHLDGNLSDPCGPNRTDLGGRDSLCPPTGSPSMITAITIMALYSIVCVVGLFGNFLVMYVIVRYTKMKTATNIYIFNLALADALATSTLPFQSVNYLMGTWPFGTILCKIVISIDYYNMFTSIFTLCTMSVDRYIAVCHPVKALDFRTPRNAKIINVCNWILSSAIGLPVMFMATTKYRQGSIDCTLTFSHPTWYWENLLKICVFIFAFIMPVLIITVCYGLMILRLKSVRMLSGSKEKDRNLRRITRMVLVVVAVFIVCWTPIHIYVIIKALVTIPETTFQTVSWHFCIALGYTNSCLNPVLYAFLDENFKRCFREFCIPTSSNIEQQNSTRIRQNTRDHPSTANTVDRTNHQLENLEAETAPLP
Chain of hMOR (P35372 whole entry): as above
Chain of humanDOR (P41143 whole entry): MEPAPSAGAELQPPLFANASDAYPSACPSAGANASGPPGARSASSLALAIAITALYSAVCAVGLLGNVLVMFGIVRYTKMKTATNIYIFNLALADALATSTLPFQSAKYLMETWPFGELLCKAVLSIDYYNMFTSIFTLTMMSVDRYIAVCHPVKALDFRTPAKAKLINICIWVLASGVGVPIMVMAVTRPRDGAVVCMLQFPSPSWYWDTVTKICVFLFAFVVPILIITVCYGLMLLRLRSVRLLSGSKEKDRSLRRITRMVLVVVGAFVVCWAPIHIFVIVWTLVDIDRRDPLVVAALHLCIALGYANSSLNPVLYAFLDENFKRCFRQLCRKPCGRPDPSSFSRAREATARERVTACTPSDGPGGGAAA
Chain of hKOR (P41145 whole entry): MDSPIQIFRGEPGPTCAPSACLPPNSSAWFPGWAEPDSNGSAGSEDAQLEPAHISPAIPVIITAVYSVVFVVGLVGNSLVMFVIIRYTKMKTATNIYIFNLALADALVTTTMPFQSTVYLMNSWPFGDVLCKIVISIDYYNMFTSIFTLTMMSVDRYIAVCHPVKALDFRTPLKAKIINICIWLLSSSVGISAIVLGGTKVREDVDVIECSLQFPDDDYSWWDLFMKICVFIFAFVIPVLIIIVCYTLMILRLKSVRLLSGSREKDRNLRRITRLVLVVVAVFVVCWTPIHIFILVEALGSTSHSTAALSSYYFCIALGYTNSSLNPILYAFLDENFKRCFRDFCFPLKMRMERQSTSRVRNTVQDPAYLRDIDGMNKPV

SMILES | Arrestin + GRK2 Emax % DAMGO (μOR [2]) | Arrestin Emax % DAMGO (μOR [3]) | EC50 (μOR [2]; read-out: Arrestin + GRK2 EC50) | Gi/o Emax % DAMGO (μOR [1]) | EC50 (μOR [1]; Gi/o EC50 nM) | EC50 (μOR [3]; read-out: Arrestin EC50) | Ki (hKOR) | Ki (hMOR) | Ki (humanDOR) | also measured
C[C@@H](Cc1ccsc1)NC(=O)NC[C@H](Cc1ccccc1)N(C)C [(S,S)-12, 1-[(S)-2-(Dimethylamino)-3-phenylpropyl]-3-[(S)-1-(thiophen-3-yl)propan-2-yl]urea] | – | – | – | – | – | – | – | – | – | Gi/o activation, μOR agonist activity (in words) (μOR [1]): most potent and efficacious Gi/o signaling agonist among the four isomers
C[C@@H](NC(=O)[C@@H](N)Cc1ccc(O)cc1)C(=O)NCC(=O)N(C)[C@@H](Cc1ccccc1)C(=O)NCCO [DAMGO, reference compound] | 100 % DAMGO | 100 % DAMGO | – | – | – | – | – | – | – | –
C[C@@H](Cc1csc2ccccc12)NC(=O)NC[C@H](Cc1ccc(O)cc1)N(C)C [DD63L-B] | 92 % DAMGO | 38 % DAMGO | 0.0821 µM | 88 % DAMGO | 5.7 nM | 0.397 µM | – | – | – | –
CN(C)[C@H](CNC(=S)NCCc1ccsc1)Cc1ccc(O)cc1 [DD81, (S)-1-(2-(dimethylamino)-3-(4-hydroxyphenyl)propyl)-3-(2-(thiophen-3-yl)ethyl)thiourea] | 27 % DAMGO | 3 % DAMGO | 0.0671 µM | 22 % DAMGO | 15.1 nM | 0.0249 µM | – | – | – | –
CC[C@@H](Cc1ccsc1)NC(=O)NC[C@H](Cc1ccc(O)cc1)N(C)C [DD88B, 1-((S)-2-(dimethylamino)-3-(4-hydroxyphenyl)propyl)-3-((S)-1-(thiophen-3-yl)butan-2-yl)urea] | 45 % DAMGO | 5 % DAMGO | – | – | – | – | – | – | – | –
CN(C)[C@H](CNC(=O)NCCc1ccccc1)Cc1ccc(O)cc1 [DD90] | 31 % DAMGO | 5 % DAMGO | 0.144 µM | 76 % DAMGO | 4.25 nM | 0.0535 µM | – | – | – | –
CN(CCc1ccccc1)C(=O)NC[C@H](Cc1ccc(O)cc1)N(C)C [DD102] | 61 % DAMGO | 30 % DAMGO | 1.5 µM | 76 % DAMGO | 37.9 nM | 1.98 µM | – | – | – | EC50 (μOR [3]; [5]): 1.98 µM
CN(C[C@H](Cc1ccc(O)cc1)N(C)C)C(=O)NCCc1ccccc1 [DD108] | 118 % DAMGO | 120 % DAMGO | 1.49 µM | 86 % DAMGO | 35.1 nM | 4.71 µM | – | – | – | EC50 (μOR [2]; read-out: Arrestin + GRK2 pEC50 (converted)): 1.49 µM
CN(CCc1ccccc1)C(=O)N(C)C[C@H](Cc1ccc(O)cc1)N(C)C [DD109] | No Activity | No Activity | – | No Activity | – | – | – | – | – | Arrestin + GRK2 EC50 nM (μOR [2]): No Activity; Gi/o EC50 nM (μOR [1]): No Activity; Arrestin EC50 nM (μOR [3]): No Activity
C[C@@H](Cc1ccsc1)NC(=O)NC[C@H](Cc1ccc(O)c(CO)c1)N(C)C [DD131, 1-((S)-2-(dimethylamino)-3-(4-hydroxy-3-(hydroxymethyl)phenyl)propyl)-3-((S)-1-(thiophen-3-yl)propan-2-yl)urea] | 45 % DAMGO | 11 % DAMGO | 0.213 µM | 57 % DAMGO | 7.94 nM | 0.23 µM | – | – | – | –
CN(CC1CC1)[C@H](CNC(=O)NCCc1ccccc1)Cc1ccc(O)cc1 [DD184] | No Activity | No Activity | – | 40 % DAMGO | 559 nM | – | – | – | – | Arrestin + GRK2 EC50 nM (μOR [2]): No Activity; Arrestin EC50 nM (μOR [3]): No Activity
CN(C)[C@H](CNC(=O)NCCc1ccsc1)Cc1ccc(O)cc1 [DD 16, (S)-1-(2-(dimethylamino)-3-(4-hydroxyphenyl)propyl)-3-(2-(thiophen-3-yl)ethyl)urea] | 33 % DAMGO | 5 % DAMGO | 0.144 µM | 60 % DAMGO | 7.55 nM | – | 0.15 µM | 0.043 µM | 0.33 µM | EC50 (μOR [3]; [5]): 0.41 µM
CN(C)[C@H](CNC(=O)NC(C)(C)Cc1ccsc1)Cc1ccc(O)cc1 [DD 32L, (S)-1-(2-(dimethylamino)-3-(4-hydroxyphenyl)propyl)-3-(2-methyl-1-(thiophen-3-yl)propan-2-yl)urea] | 24 % DAMGO | 3 % DAMGO | 0.0494 µM | 52 % DAMGO | 23.5 nM | 0.00523 µM | 0.046 µM | 0.038 µM | 0.65 µM | –
CN(C)[C@H](CNC(=O)NC(C)(C)Cc1ccccc1)Cc1ccc(O)cc1 [DD 33L, (S)-1-(2-(dimethylamino)-3-(4-hydroxyphenyl)propyl)-3-(2-methyl-1-phenylpropan-2-yl)urea] | 14 % DAMGO | No Activity | 0.134 µM | 61 % DAMGO | 98.1 nM | – | 0.091 µM | 0.046 µM | 0.92 µM | EC50 (μOR [1]; Gi/o pEC50): 98.2 nM; Arrestin EC50 nM (μOR [3]): No Activity
C[C@@H](Cc1ccsc1)NC(=O)NC[C@H](Cc1cccc(O)c1)N(C)C [DD 47LS, 1-((S)-2-(dimethylamino)-3-(3-hydroxyphenyl)propyl)-3-((S)-1-(thiophen-3-yl)propan-2-yl)urea] | 70 % DAMGO | 12 % DAMGO | 0.211 µM | 73 % DAMGO | 17 nM | 0.357 µM | 0.046 µM | 0.034 µM | 0.35 µM | –
C[C@H](NC(=O)NC[C@H](Cc1ccc(O)cc1)N(C)C)c1ccccc1 [DD 53LS, 1-((S)-2-(dimethylamino)-3-(4-hydroxyphenyl)propyl)-3-((S)-1-phenylethyl)urea] | 33 % DAMGO | 5 % DAMGO | 0.0874 µM | 63 % DAMGO | 3.08 nM | 0.0679 µM | 0.022 µM | 0.028 µM | 0.18 µM | –
CN(C)[C@H](CNC(=O)NC1Cc2ccccc2C1)Cc1ccc(O)cc1 [DD 57L, (S)-1-(2,3-dihydro-1H-inden-2-yl)-3-(2-(dimethylamino)-3-(4-hydroxyphenyl)propyl)urea] | No Activity | No Activity | – | No Activity | – | – | 0.04 µM | 0.0083 µM | 0.074 µM | Arrestin + GRK2 EC50 nM (μOR [2]): No Activity; Gi/o EC50 nM (μOR [1]): No Activity; Arrestin EC50 nM (μOR [3]): No Activity
C[C@@H](Cc1ccccc1)NC(=O)NC[C@H](Cc1ccc(O)cc1)N(C)C [DD 61L-B, 1-((S)-2-(dimethylamino)-3-(4-hydroxyphenyl)propyl)-3-((S)-1-phenylpropan-2-yl)urea] | 79 % DAMGO | 12 % DAMGO | 0.278 µM | 84 % DAMGO | 35.5 nM | 0.0841 µM | 0.037 µM | 0.042 µM | 0.36 µM | –
CN(C)[C@H](CNC(=O)Cc1cn2ccccc2n1)Cc1ccccc1 [compound 2] | – | – | – | – | – | – | – | – | – | Ki (μOR [4]; [6]): 5.8 µM
Cc1cccc(NC2CCN(C(=O)Nc3ccc(F)cc3F)CC2)n1 [compound 3] | – | – | – | – | – | – | – | – | – | Ki (μOR [4]; [6]): 13.8 µM
CN(C)[C@H](CNC(=O)Cc1ccc([N+](=O)[O-])s1)Cc1ccccc1 [compound 4] | – | – | – | – | – | – | – | – | – | Ki (μOR [4]): 2.3 µM
Cc1ccc2[nH]c(=O)c(CN3CCN[C@@H](c4ccccc4)C3)cc2c1 [compound 5] | – | – | – | – | – | – | – | – | – | Ki (μOR [4]; [6]): 4.7 µM
